From patent US7618960B2, “Morpholine type cinnamide compound” (Eisai R&D Management Co., Ltd., priority 2005, dated 2009)
pIC50: −log10 of the molar value.

tested on: Aβ42 production; test: Quantification of Aβ peptide in culture of neurons from rat fetus brain (Aβ ELISA); type: cell-based; settings: Neuron, 72 h; rat primary neuronal culture (cerebral cortex, embryonic day 18 Wistar rats); medium collected three days after addition of compound; Aβx-42 ELISA; read-out: Activity for reducing Aβ42 production IC50
Protocol: Quantification of Aβ Peptide in Culture of Neurons from Rat Fetus Brain
(1) Rat Primary Neuronal Culture
Primary neuronal cultures were prepared from the cerebral cortex of embryonic day 18 Wistar rats (Charles River Japan, Yokohama, Japan). Specifically, the embryos were aseptically removed from pregnant rats under ether anesthesia. The brain was isolated from the embryo and immersed in an ice-cold L-15 medium (Invitrogen Corp. Cat #11415-064, Carlsbad, Calif., USA, or SIGMA L1518, for example). The cerebral cortex was collected from the isolated brain under a stereoscopic microscope. The cerebral cortex fragments collected were enzymatically treated in an enzyme solution containing 0.25% trypsin (Invitrogen Corp. Cat #15050-065, Carlsbad, Calif., USA) and 0.01% DNase (Sigma D5025, St. Louis, Mo., USA) at 37° C. for 30 minutes to disperse the cells. Here, the enzymatic reaction was stopped by adding inactivated horse serum to the solution. The enzymatically treated solution was centrifuged at 1,500 rpm for five minutes to remove the supernatant. 5 to 10 ml of a medium was added to the resulting cell mass. Neurobasal medium (Invitrogen Corp. Cat #21103-049, Carlsbad, Calif., USA) supplemented with 2% B27 supplement (Invitrogen Corp. Cat #17504-044, Carlsbad, Calif., USA), 25 μM 2-mercaptoethanol (2-ME, WAKO Cat #139-06861, Osaka, Japan), 0.5 mM L-glutamine (Invitrogen Corp. Cat #25030-081, Carlsbad, Calif., USA), and Antibiotics-Antimycotics (Invitrogen Corp. Cat #15240-062, Carlsbad, Calif., USA) was used as the medium (Neurobasal/B27/2-ME). However, the above Neurobasal medium not supplemented with 2-ME (Neurobasal/B27) was used for the assay. The cells were redispersed by mild pipetting of the cell mass to which the medium was added. The cell dispersion was filtered through a 40-μm nylon mesh (Cell Strainer, Cat #35-2340, Becton Dickinson Labware, Franklin Lakes, N.J., USA) to remove the remaining cell mass, and thus a neuronal cell suspension was obtained. The neuronal cell suspension was diluted with the medium and then plated in a volume of 100 μl/well at an initial cell density of 5×10^5 cells/cm^2 in a 96-well polystyrene culture plate pre-coated with poly-L or D-lysine (Falcon Cat #35-3075, Becton Dickinson Labware, Franklin Lakes, N.J., USA coated with poly-L-lysine using the method shown below, or BIOCOAT™ cell environments Poly-D-lysine cell ware 96-well plate, Cat #35-6461, Becton Dickinson Labware, Franklin Lakes, N.J., USA). Poly-L-lysine coating was carried out as follows. 100 μg/ml of a poly-L-lysine (SIGMA P2636, St. Louis, Mo., USA) solution was aseptically prepared with a 0.15 M borate buffer (pH 8.5). 100 μl/well of the solution was added to the 96-well polystyrene culture plate and incubated at room temperature for one or more hours or at 4° C. overnight or longer. The coated 96-well polystyrene culture plate was washed with sterile water four or more times, and then dried or rinsed with, for example, sterile PBS or medium, and used for cell plating. The plated cells were cultured in the culture plate at 37° C. in 5% […]-95% air for one day. Then, the total amount of the medium was replaced with a fresh Neurobasal™/B27/2-ME medium, and then the cells were cultured for further three days.
The drug was added to the culture plate on Day 4 of culture as follows. The total amount of the medium was removed from the wells, and 180 μl/well of Neurobasal medium not containing 2-ME and containing 2% B-27 (Neurobasal/B27) was added thereto. A solution of the test compound in dimethyl sulfoxide (hereinafter abbreviated as DMSO) was diluted with Neurobasal/B27 so that the initial concentration was at 10-fold of the final concentration. 20 μl/well of the dilution was added to and sufficiently mixed with the medium. The final DMSO concentration was 1% or less. Only DMSO was added to the control group.
The cells were cultured for three days after addition of the compound, and the total amount of the medium was collected. […]

Compound | pIC50
COc1cc(/C=C2\OC(C)(C)CN([C@@H](C)c3ccnc(F)c3F)C2=O)ccc1-n1cnc(C)c1 [Example 58, (Z)-4-[(S)-1-(2,3-difluoropyridin-4-yl)ethyl]-2-[1-[3-methoxy-4-(4-methyl-1H-imidazol-1-yl)phenyl]methylidene]-6,6-dimethylmorpholin-3-one] | 7.17
COc1cc(/C=C2\OC(C)(C)CN([C@@H](C)c3ccc(Cl)cn3)C2=O)ccc1-n1cnc(C)c1 [Example 60, (Z)-4-[(S)-1-(5-chloropyridin-2-yl)ethyl]-2-[1-[3-methoxy-4-(4-methyl-1H-imidazol-1-yl)phenyl]methylidene]-6,6-dimethylmorpholin-3-one] | 7.02
Cc1cn(-c2ccc(/C=C3\O[C@@H](C)CN([C@H](c4cc(F)c(F)c(F)c4)[C@@H](C)O)C3=O)cc2F)cn1 [Example 74, (Z)-(S)-2-[1-[3-fluoro-4-(4-methyl-1H-imidazol-1-yl)phenyl]methylidene]-4-[(1R,2R)-2-hydroxy-1-(3,4,5-trifluorophenyl)propyl]-6-methylmorpholin-3-one] | 6.85
Cc1cn(-c2ccc(/C=C3\O[C@@H](C)CN([C@H](c4ccc(F)c(F)c4)[C@@H](C)O)C3=O)cc2F)cn1 [Example 75, (Z)-(S)-4-[(1R,2R)-1-(3,4-difluorophenyl)-2-hydroxypropyl]-2-[1-[3-fluoro-4-(4-methyl-1H-imidazol-1-yl)phenyl]methylidene]-6-methylmorpholin-3-one] | 6.84
Cc1cn(-c2ccc(/C=C3\OC(C)(C)CN([C@H](c4cc(F)c(F)c(F)c4)[C@@H](C)O)C3=O)cc2F)cn1 [Example 77, (Z)-2-[1-[3-fluoro-4-(4-methyl-1H-imidazol-1-yl)phenyl]methylidene]-4-[(1R,2R)-2-hydroxy-1-(3,4,5-trifluorophenyl)propyl]-6,6-dimethylmorpholin-3-one] | 6.85
Cc1cn(-c2ccc(/C=C3\C[C@H](C)CN([C@H](c4cc(F)c(F)c(F)c4)[C@@H](C)O)C3=O)cc2F)cn1 [Example 84, (E)-(S)-3-{1-[3-fluoro-4-(4-methyl-1H-imidazol-1-yl)phenyl]methylidene}-1-[(1R,2R)-2-hydroxy-1-(3,4,5-trifluorophenyl)propyl]-5-methylpiperidin-2-one] | 7.43
Cc1cn(-c2ccc(/C=C3\CCCN([C@H](c4cc(F)c(F)c(F)c4)[C@@H](C)O)C3=O)cc2F)cn1 [Example 85, (E)-3-{1-[3-fluoro-4-(4-methyl-1H-imidazol-1-yl)phenyl]methylidene}-1-[(1R,2R)-2-hydroxy-1-(3,4,5-trifluorophenyl)propyl]piperidin-2-one] | 7.19
COc1cc(/C=C2\OC[C@H]3CCC[C@@H](c4ccc(Cl)cc4)N3C2=O)ccc1-n1cnc(C)c1 [Example 107, (6S,9aR)-6-(4-chlorophenyl)-3-{1-[3-methoxy-4-(4-methyl-1H-imidazol-1-yl)phenyl]-(Z)-methylidene}hexahydropyrido[2,1-c][1,4]oxazin-4-one] | 7.11
COc1cc(/C=C2\OC[C@H]3COC[C@@H](c4cc(F)c(F)c(F)c4)N3C2=O)ccc1-n1cnc(C)c1 [Example 108, (6R,9aR)-3-{1-[3-methoxy-4-(4-methyl-1H-imidazol-1-yl)phenyl]-(Z)-methylidene}-6-(3,4,5-trifluorophenyl)tetrahydro[1,4]oxazino[3,4-c][1,4]oxazin-4-one] | 7.22
COc1cc(/C=C2\OC[C@H]3COC[C@@H](c4ccc(F)c(F)c4)N3C2=O)ccc1-n1cnc(C)c1 [Example 109, (6R,9aR)-6-(3,4-difluorophenyl)-3-{1-[3-methoxy-4-(4-methyl-1H-imidazol-1-yl)phenyl]-(Z)-methylidene}tetrahydro[1,4]oxazino[3,4-c][1,4]oxazin-4-one] | 7.00
COc1cc(/C=C2\OC[C@H]3COC[C@@H](c4ccc(Cl)cc4)N3C2=O)ccc1-n1cnc(C)c1 [Example 111, (6R,9aR)-6-(4-chlorophenyl)-3-[1-[3-methoxy-4-(4-methyl-1H-imidazol-1-yl)phenyl]-(Z)-methylidene]tetrahydro[1,4]oxadino[3,4-c]oxadine-4-one] | 6.89
